From US20260373266A1, “PROTEIN DEGRADERS AND USES THEREOF” (KYMERA THERAPEUTICS, INC., priority 2022, published 2026)
pKd: −log10 of the molar value.

target: T1, DCAF1 WD40 domain (residues 1077-1390) (Homo sapiens, UniProt Q9Y4B6); test: DCAF1 binding assay by SPR (Biacore 8K+), DCAF1-3 KD; details: 25 °C, read-out: DCAF1-3 SPR (KD)
T1 construct: DCAF1 WD40 domain (residues 1077-1390)
T1 sequence (Q9Y4B6 1077-1390): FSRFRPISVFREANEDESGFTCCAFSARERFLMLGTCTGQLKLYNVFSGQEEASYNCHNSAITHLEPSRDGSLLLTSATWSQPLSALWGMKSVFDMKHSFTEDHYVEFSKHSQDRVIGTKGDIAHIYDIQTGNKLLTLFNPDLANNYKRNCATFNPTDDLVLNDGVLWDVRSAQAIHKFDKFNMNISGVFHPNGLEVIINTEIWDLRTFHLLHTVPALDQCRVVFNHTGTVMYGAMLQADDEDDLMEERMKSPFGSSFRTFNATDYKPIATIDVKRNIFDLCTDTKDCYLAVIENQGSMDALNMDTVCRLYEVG

| SMILES | pKd |
| --- | --- |
| Cc1c(F)ccc(F)c1-c1c(C(=O)N[C@@H](CC(N)=O)c2cccc(Cl)c2)c[nH]c1C#N [I-798] | > 5.00 |
| O[C@@H]1CCCN(c2ccnc(N3CC[C@H]4[C@@H]3CCCN4c3cccc(F)c3)c2)C1 [I-799] | < 3.70 |
| O[C@H]1CCCN(c2ccnc(N3CC[C@@H]4[C@H]3CCCN4c3cccc(F)c3)c2)C1 [I-800] | > 5.00 |
| Cc1cccc(F)c1-c1c(C(=O)N[C@@H](CC(N)=O)c2cccc(Cl)c2)c[nH]c1C(=O)c1ccc(N2CCCCC2)cc1 [I-801] | > 5.00 |
| Cc1c(F)ccc(F)c1-c1c(C(=O)N[C@@H](CC(N)=O)c2cccc(Cl)c2)c[nH]c1C(=O)COCCOCCOCCOCCOCCOCCN [I-802] | > 5.00 |
| C=CC(=O)NCCOCC1CCN(c2ccnc(N[C@@H]3CCCN(c4cccc(F)c4)C3)c2)CC1 [I-803] | 4.00 to 5.00 |
| OC1(C2CCCCC2)CCC[C@@H](Nc2cc(N3CCCCC3)ccn2)C1 (some centres unmarked) [I-804] | 4.00 to 5.00 |
| Cc1c(F)ccc(F)c1-c1c(C(=O)N[C@@H](CC(N)=O)c2cccc(Cl)c2)c[nH]c1C(=O)c1ccc(CCCOCCOCCOCCOCCOCCN)cc1 [I-805] | > 5.00 |
| Cc1c(F)ccc(F)c1-c1c(C(=O)N[C@@H](CC(N)=O)c2cccc(Cl)c2)c[nH]c1C(=O)c1ccc(CCCOCCOCCOCCN)cc1 [I-806] | > 5.00 |
| CN(CCN)C(=O)C[C@H](NC(=O)c1cn[nH]c1-c1ccccc1F)c1cccc(Cl)c1 [I-807] | > 5.00 |
| Fc1cccc(N2CCC[C@@H](N3CCCc4c(N5CCCCC5)ccnc43)C2)c1 [I-808] | < 3.70 |
| Cc1c(F)ccc(F)c1-c1c(C(=O)N[C@@H](CC(N)=O)c2cccc(Cl)c2)c[nH]c1C(=O)COCCOCCOCCOCCOCCN [I-809] | > 5.00 |
| COc1ccc(C(=O)c2[nH]cc(C(=O)N[C@@H](CC(N)=O)c3cccc(Cl)c3)c2-c2c(F)ccc(F)c2C)cc1 [I-810] | > 5.00 |
| Nc1ccc(F)cc1N1CCC[C@@H]2[C@H]1CCN2c1cc(N2CCCCC2)ccn1 [I-811] | > 5.00 |
| Oc1ccc(F)cc1N1CCC[C@@H]2[C@H]1CCN2c1cc(N2CCCCC2)ccn1 [I-812] | 4.00 to 5.00 |
| Oc1ccc(F)cc1N1CCC[C@H]2[C@@H]1CCN2c1cc(N2CCCCC2)ccn1 [I-813] | 4.00 to 5.00 |
| NC(=O)CC(Cc1ccccc1)NC(=O)c1cn[nH]c1-c1cc(F)ccc1F (centres unmarked) [I-814] | 4.00 to 5.00 |
| CN1CCN(CC2CCN(c3ccnc(N4CC[C@@H]5[C@H]4CCCN5c4cccc(F)c4)c3)CC2)CC1 [I-815] | > 5.00 |
| CN1CCN(CCC2CCN(c3ccnc(N4CC[C@@H]5[C@H]4CCCN5c4cccc(F)c4)c3)CC2)CC1 [I-816] | > 5.00 |
| Cc1ccc(S(=O)(=O)c2[nH]cc(C(=O)N[C@@H](CC(N)=O)c3cccc(Cl)c3)c2-c2c(F)ccc(F)c2C)cc1 [I-817] | > 5.00 |
| Cc1c(F)ccc(F)c1-c1[nH]ncc1C(=O)N[C@H](CC(N)=O)c1ccc(F)c(Cl)c1 [I-818] | > 5.00 |
| Cc1c(F)ccc(F)c1-c1[nH]ncc1C(=O)N[C@@H](CC(N)=O)c1ccc(F)c(Cl)c1 [I-819] | 4.00 to 5.00 |
| CNC(=O)C[C@H](NC(=O)c1c[nH]c(C(=O)COCCOCCOCCOCCOCCN)c1-c1c(F)ccc(F)c1C)c1cccc(Cl)c1 [I-820] | > 5.00 |
| OCCC[C@@H]1C[C@@H]2[C@@H](CCCN2c2cccc(F)c2)N1c1cc(N2CCCCC2)ccn1 [I-821] | < 3.70 |
| Cc1c(F)ccc(F)c1-c1c(C(=O)N[C@@H](CC(=O)N(C)C)c2cccc(Cl)c2)c[nH]c1C(=O)COCCOCCOCCOCCOCCN [I-822] | > 5.00 |
| C[C@H]1CC[C@H](O)CN1c1ccnc(N2CC[C@@H]3[C@H]2CCCN3c2cccc(F)c2)c1 [I-823] | > 5.00 |
| C[C@@H]1CC[C@H](O)CN1c1ccnc(N2CC[C@@H]3[C@H]2CCCN3c2cccc(F)c2)c1 [I-824] | > 5.00 |

| SMILES | pKd |
| --- | --- |
| OCCC[C@H]1C[C@@H]2[C@@H](CCCN2c2cccc(F)c2)N1c1cc(N2CCCCC2)ccn1 [I-825] | 4.00 to 5.00 |
| OCCC[C@H]1C[C@@H]2[C@H](CCCN2c2cccc(F)c2)N1c1cc(N2CCCCC2)ccn1 [I-826] | 4.00 to 5.00 |
| COCCOCCC1CN(c2cc(N3CCOCC3)ccn2)[C@H]2CCCN(c3cccc(F)c3)[C@@H]12 (some centres unmarked) [I-827] | > 5.00 |
| COCCOCCC1CN(c2cc(N3CCOCC3)ccn2)[C@@H]2CCCN(c3cccc(F)c3)[C@H]12 (some centres unmarked) [I-828] | < 3.70 |
| OCCC[C@@H]1C[C@H]2[C@H](CCCN2c2cccc(F)c2)N1c1cc(N2CCCCC2)ccn1 [I-830] | 4.00 to 5.00 |
| OCCC[C@@H]1C[C@H]2[C@@H](CCCN2c2cccc(F)c2)N1c1cc(N2CCCCC2)ccn1 [I-831] | 4.00 to 5.00 |
| C[C@@H]1[C@H](O)CCCN1c1ccnc(N2CC[C@@H]3[C@H]2CCCN3c2cccc(F)c2)c1 [I-832] | > 5.00 |
| C[C@H]1[C@@H](O)CCCN1c1ccnc(N2CC[C@@H]3[C@H]2CCCN3c2cccc(F)c2)c1 [I-833] | > 5.00 |
| OCCC[C@H]1C[C@H]2[C@@H](CCCN2c2cccc(F)c2)N1c1cc(N2CCCCC2)ccn1 [I-834] | 4.00 to 5.00 |
| OCCC[C@H]1C[C@H]2[C@H](CCCN2c2cccc(F)c2)N1c1cc(N2CCCCC2)ccn1 [I-835] | < 3.70 |
| CC(NC(=O)c1cn[nH]c1-c1cccc(Cl)c1)c1ccc[nH]1 (centres unmarked) [I-836] | < 3.70 |
| Cc1n[nH]c(C(F)(F)F)c1C(=O)N[C@@H](CC(N)=O)c1ccccc1 [I-837] | < 3.70 |
| COc1ccc(-c2[nH]ncc2C(=O)NC(C)C(=O)Nc2ccccc2)cc1 (centres unmarked) [I-838] | < 3.70 |
| C[C@@H](NC(=O)c1cn[nH]c1-c1c(F)cccc1F)c1ncc[nH]1 [I-839] | < 3.70 |
| Fc1cccc(N2CCC[C@H](N3CCc4c(N5CC6CC(C6)C5)ccnc43)C2)c1 [I-840] | < 3.70 |
| Fc1cccc(N2CCC[C@@H](N3CCc4c(N5CC6CC(C6)C5)ccnc43)C2)c1 [I-841] | > 5.00 |
| Cc1c(F)ccc(F)c1-c1[nH]ncc1C(=O)N[C@@H](CC(=O)N1CCOCC1)c1cccc(Cl)c1 [I-842] | > 5.00 |
| Cc1c(F)ccc(F)c1-c1[nH]ncc1C(=O)N[C@@H](CC(=O)N1CCN(C)CC1)c1cccc(Cl)c1 [I-843] | > 5.00 |
| Cc1c(F)ccc(F)c1-c1c(C(=O)NC(CC(N)=O)c2cccc(Cl)c2)cn(C)c1C(=O)COCCOCCOCCOCCOCCN (centres unmarked) [I-844] | > 5.00 |
| C=CC(=O)NCCCN1CCN(c2ccnc3c2CCN3C2CCCN(c3cccc(F)c3)C2)CC1 (centres unmarked) [I-845] | 4.00 to 5.00 |
| C=CC(=O)NCCCN1CCN(c2ccnc(N3CC[C@@H]4[C@H]3CCCN4c3cccc(F)c3)c2)CC1 [I-846] | 4.00 to 5.00 |
| OC[C@H]1CC[C@H](Nc2cc(N3CCCCC3)ccn2)CC1 [I-847] | < 3.70 |
| C=CC(=O)N(C)CCCCC1CCN(c2ccnc(N3CC[C@@H]4[C@H]3CCCN4c3cccc(F)c3)c2)CC1 [I-850] | > 5.00 |
| Cc1c(F)ccc(F)c1-c1c(C(=O)N[C@@H](CC(=O)N2CCNCC2)c2cccc(Cl)c2)c[nH]c1C(=O)c1ccccc1 [I-851] | > 5.00 |
| C=CC(=O)NCCCCC1CCN(c2ccnc(N3CC[C@@H]4[C@H]3CCCN4c3cccc(F)c3)c2)CC1 [I-852] | > 5.00 |
| CCC(=O)NC1CCC2(CC1)CCN(c1cccc(N[C@@H]3CCCN(c4cccc(F)c4)C3)c1)CC2 [I-853] | > 5.00 |
| COc1cc(N2CCC[C@@H](Nc3cc(N4CCOCC4)ccn3)C2)cnc1CO [I-854] | 4.00 to 5.00 |

| SMILES | pKd |
| --- | --- |
| O=C(O)c1cc2c(N3CCC[C@@H](Nc4cc(N5CCOCC5)ccn4)C3)cccc2s1 [I-855] | < 3.70 |
| NCCCc1ccc(N2CCC[C@@H](Nc3cc(N4CCOCC4)ccn3)C2)cc1 [I-856] | 4.00 to 5.00 |
| CSc1ccc(N2CCC[C@@H](Nc3cc(N4CCOCC4)ccn3)C2)c(Cl)c1 [I-857] | < 3.70 |
| c1cc(N2CCOCC2)cc(N[C@@H]2CCCN(c3ccc4c(N5CCNCC5)ccnc4c3)C2)n1 [I-858] | 4.00 to 5.00 |
| COc1ncc2cc[nH]c2c1N1CCC[C@@H](Nc2cc(N3CCOCC3)ccn2)C1 [I-859] | 4.00 to 5.00 |
| OCCc1ccc(N2CCC[C@@H](Nc3cc(N4CCOCC4)ccn3)C2)cc1 [I-860] | < 3.70 |
| OCCc1cccc(N2CCC[C@@H](Nc3cc(N4CCOCC4)ccn3)C2)c1 [I-861] | 4.00 to 5.00 |
| OCCCc1cccc(N2CCC[C@@H](Nc3cc(N4CCOCC4)ccn3)C2)c1 [I-862] | 4.00 to 5.00 |
| NC(=O)Cc1ccc(N2CCC[C@@H](Nc3cc(N4CCOCC4)ccn3)C2)cc1 [I-863] | < 3.70 |
| C[S@@+]([O-])c1ccc(N2CCC[C@@H](Nc3cc(N4CCOCC4)ccn3)C2)cc1 [I-864] | < 3.70 |
| NCCc1cccc(N2CCC[C@@H](Nc3cc(N4CCOCC4)ccn3)C2)c1 [I-865] | < 3.70 |
| NCc1cccc(N2CCC[C@@H](Nc3cc(N4CCOCC4)ccn3)C2)c1 [I-866] | < 3.70 |
| NCCCc1cccc(N2CCC[C@@H](Nc3cc(N4CCOCC4)ccn3)C2)c1 [I-867] | 4.00 to 5.00 |
| NCc1ccc(N2CCC[C@@H](Nc3cc(N4CCOCC4)ccn3)C2)cc1 [I-868] | > 5.00 |
| NC(=O)CCc1ccc(N2CCC[C@@H](Nc3cc(N4CCOCC4)ccn3)C2)cc1 [I-869] | 4.00 to 5.00 |
| c1ccc(CN2CCc3ncnc(N4CCC[C@@H](Nc5cc(N6CCOCC6)ccn5)C4)c3C2)cc1 [I-870] | 4.00 to 5.00 |
| NCCc1ccc(N2CCC[C@@H](Nc3cc(N4CCOCC4)ccn3)C2)cc1 [I-871] | < 3.70 |
| c1cc(N2CCOCC2)cc(N[C@@H]2CCCN(c3ccc4c(c3)CCC4)C2)n1 [I-872] | < 3.70 |
| OCCCc1ccc(N2CCC[C@@H](Nc3cc(N4CCOCC4)ccn3)C2)cc1 [I-873] | < 3.70 |
| NC(=O)CCc1cc(N2CCC[C@H]3[C@@H]2CCN3c2cc(N3CCCCC3)ccn2)ccc1F [I-874] | > 5.00 |
| NC(=O)CCc1cc(N2CCC[C@@H]3[C@H]2CCN3c2cc(N3CCCCC3)ccn2)ccc1F [I-875] | 4.00 to 5.00 |
| Cc1c(F)ccc(F)c1-c1c(C(=O)N[C@@H](CC(=O)N2CCNCC2)c2cccc(Cl)c2)c[nH]c1C#N [I-876] | > 5.00 |
| Cc1c(F)ccc(F)c1-c1[nH]ncc1C(=O)N[C@@H](CC(=O)N1CC(O)C1)c1cccc(Cl)c1 [I-877] | > 5.00 |
| Cc1c(F)ccc(F)c1-c1[nH]ncc1C(=O)N[C@@H](CC(=O)N1CC(N(C)C)C1)c1cccc(Cl)c1 [I-878] | > 5.00 |
| NC(=O)CCc1cccc(N2CCC[C@@H]3[C@H]2CCN3c2cc(N3CCCCC3)ccn2)c1 [I-879] | 4.00 to 5.00 |
| CNC1CN(C(=O)C[C@H](NC(=O)c2cn[nH]c2-c2c(F)ccc(F)c2C)c2cccc(Cl)c2)C1 [I-880] | > 5.00 |
